Source: article PMC8568920, “Serum apolipoprotein A-I potentiates the therapeutic efficacy of lysocin E against Staphylococcus aureus” (Nature Communications, 2021)
≈ marks a conversion by molar mass, not a printed value. Read-outs that look alike come from different tables or passages of the source.

Legend:
MRSA = assay: microbe, parasite or virus in culture; conditions: for MIC: Staphylococcus aureus
Description: (§1) The antimicrobial activities of the compounds were measured using the microdilution method. Measurement of the bactericidal activity of lysocin E (0.25 µg ml^−1) and nisin (2 µg ml^−1) with or without ApoA-I was performed according to the National Committee for Clinical Laboratory Standards method. […] For the ∆menA and ∆menB strains, TSB medium was used instead of cation-adjusted-Mueller Hinton broth (CA-MHB) in the microdilution method. Sera and ApoA-I, II were added to the bacterial culture before distributing them into 96-well plates. ApoA-I and ApoA-II antimicrobial activity were evaluated using the RN4220 strain. The protein binding rate of lysocin E against human plasma was determined by a rapid equilibrium dialysis device (Thermo Fisher Scientific, Waltham, MA, USA) according to the manufacturer’s instructions.

MRSA MR6 strain = assay: Mouse systemic MRSA infection model, survival ED50; assay type: in vivo; conditions: ICR female mice; MRSA MR6 i.p. 5.7 × 10^7 CFU in mucin; s.c. at 1 h and 6 h after infection; survival after 5 days; 5 animals/group; logistic regression
Description: Mouse protocols followed the Regulations for Animal Care and Use of the University of Tokyo under approval by the Graduate School of Pharmaceutical Science at the University of Tokyo (approval nos. 24–55). Mice were housed in a group of at most five in a cage, kept in a room maintained at 23–24 °C, 55% humidity, and 12 h light/12 h dark cycle. For Table 1, clinically isolated MRSA MR6 strain[47] was cultured overnight, suspended in 7% type II porcine stomach mucin supplemented with 0.2 mM FeNH4-citrate and intraperitoneally administered to mice (ICR, female, 4 weeks of age) at 5.7 × 10^7 colony-forming units. Lysocin E (4–0.25 mg kg^−1), vancomycin (8–0.5 mg kg^−1), linezolid (8–0.5 mg kg^−1), or daptomycin (4–0.25 mg kg^−1) were administered subcutaneously to 5 animals/group at 1 h and 6 h after infection. Mouse survival was assessed after 5 days and ED50 values were calculated by multiple logistic regression analysis. For Fig. 1d, the Newman strain was cultured in TSB overnight and cells (4.0 × 10^7 colony-forming units) were washed in phosphate-buffered saline (PBS) were injected into the tail vein of 8–12-week-old female C57BL/6J wild-type mice or Apoa1 homozygous-deficient mice. After 2 h, lysocin E (0.5 mg kg^−1) was administered subcutaneously. After 24 h, the kidneys were harvested and crushed with a BioMasher II (Nippi Incorporated, Tokyo, Japan). The suspensions were diluted with PBS(−), plated on TSB agar medium and the number of colonies was counted.

S. aureus RN4220 [1] = conditions: for MIC, Control / MIC +rhApoA-I relative to control (fold) / MIC, +rhApoA-I 25µg ml-1: RN4220; for MIC, Control: no rhApoA-I; for MIC +rhApoA-I relative to control (fold) / MIC, +rhApoA-I 25µg ml-1: rhApoA-I 25 µg ml-1
Description: as §1

[2] = cited from earlier work
S. aureus RN4220 [3] = assay: Direct antimicrobial activity of ApoA-I and ApoA-II; assay type: cell-based, Staphylococcus aureus; conditions: up to 300 or 600 µg ml^−1; purified bovine and human proteins
Description: as §1

S. aureus = assay: Lysocin E antimicrobial activity-enhancing activity (1 unit decreases the MIC of lysocin E to 1 µg ml−1); assay type: cell-based, Staphylococcus aureus; conditions: ApoA species
Description: Calf serum (10 ml) was added to 15 ml EtOH (60% v/v) and the mixture was centrifuged for 15 min. The collected supernatant was evaporated and suspended in 8 ml Milli-Q water (fraction [fr.] II). Fr. II with formic acid (0.1%) was applied to 10 ml of ODS resin (Waters Corporation, Milford, MA, USA). After washing with 25% EtOH and then 50% EtOH, the resin was eluted with 75% EtOH containing 0.1% formic acid. The eluted sample was evaporated and dissolved in 0.8 ml buffer A (10 mM phosphate buffer [pH 7.1], 6 M urea; Fr. III). Fr. III was applied to the Superose 12 10/300 GL gel filtration column (GE Healthcare) and eluted with the AKTApurifier system (GE Healthcare). The elution was performed in buffer A at a flow rate of 0.5 ml min^−1 and 60 fractions (0.5 ml per fr.) were collected in 2-ml tubes. All fractions, except for Fr. I, were dialysed in 10 mM phosphate buffer (pH 7.1) before assessment of their activities. Protein concentrations were measured using Coomassie Plus^TM protein assay reagent (Thermo Fisher) with bovine serum albumin as the standard. Amino acid sequence analysis was performed by in-gel digestion and mass spectrometric analysis. One unit was defined as the activity that decreases the MIC of lysocin E to 1 µg ml^−1.

S. aureus ∆menA strain = assay: MIC by microdilution in TSB; assay type: cell-based, Staphylococcus aureus; conditions: TSB medium; two independent experiments
Description: as §1

S. aureus ∆menB strain = assay: MIC by microdilution in TSB; assay type: cell-based, Staphylococcus aureus; conditions: TSB medium; two independent experiments
Description: as §1

rhApoA-I = biological target: T1, rhApoA-I (Homo sapiens, UniProt P02647); assay: rhApoA-I pull-down assay (antimicrobial bound to rhApoA-I, UPLC-MS); assay type: binding; parameters: unit not given here
T1 construct: 1 65 146 160 185 243; made in house; host or cells: E. coli BL21(DE3)/pLysS, pET20b (pET-hApoWT)
T1 sequence (P02647 25-267): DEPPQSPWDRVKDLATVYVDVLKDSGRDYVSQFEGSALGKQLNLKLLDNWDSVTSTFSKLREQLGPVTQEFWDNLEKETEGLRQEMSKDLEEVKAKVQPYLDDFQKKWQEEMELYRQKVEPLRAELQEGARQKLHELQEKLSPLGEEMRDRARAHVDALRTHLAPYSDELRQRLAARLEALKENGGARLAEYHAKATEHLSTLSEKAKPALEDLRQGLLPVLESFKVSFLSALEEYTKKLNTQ
Description: Menaquinone 4 (MK-4; 100 µl of 1.25 mM) was mixed with N-dodecyl β-D-maltoside (250 µl of 100 mM) in the presence or absence of purified lipid II or lipids (300 µl of 70 µM). Lipid II fraction was prepared from S. aureus RN4220 treated with moenomycin, followed by park nucleotide removal. The mixture was dried in vacuo and dissolved in 2 ml of water. The micelles were then filtered through a 0.45-µm polyvinylidene difluoride membrane filter and a 200 µl aliquot of the filtered micelles were used to evaluate the binding of the antimicrobials in the presence of rhApoA-I. Briefly, 5 µg of antimicrobials was added to the aliquots and the mixture was incubated for 15 min on ice in the presence of 4 µg rhApoA-I. The mixture was then transferred to His-Tag magnetic beads (Dynabeads, Thermo Fisher). The bound protein was then eluted with 250 mM imidazole and then eluted antimicrobials were quantified using an ACQUITY ultra-performance liquid chromatography (UPLC) H-Class PLUS attached to Xevo G2-XS QTof system (Waters Corporation). After injecting the sample into a 2.1 × 100 mm Acquity UPLC HSS T3 1.8 μm column (Waters Corporation) equilibrated with 0.3 mL min^–1 of 30% acetonitrile and 0.1% formic acid in water, the column was developed with a linear gradient to 60% acetonitrile and 0.1% formic acid in water over 10 min. The eluate was continuously applied to a Waters Xevo G2-XS QTof mass spectrometer and the spectra were obtained using MassLynx 4.1 (Waters Corporation) in electrospray ionisation (ESI)-positive mode that was analysed by UNIFI Scientific Information System ver. 1.9 (Waters Corporation).

## CCCCCCCCCC(=O)N[C@@H](Cc1c[nH]c2ccccc12)C(=O)N[C@H](CC(N)=O)C(=O)N[C@@H](CC(=O)O)C(=O)N[C@@H]1C(=O)NCC(=O)N[C@@H](CCCN)C(=O)N[C@@H](CC(=O)O)C(=O)N[C@H](C)C(=O)N[C@@H](CC(=O)O)C(=O)NCC(=O)N[C@H](CO)C(=O)N[C@@H]([C@H](C)CC(=O)O)C(=O)N[C@@H](CC(=O)c2ccccc2N)C(=O)O[C@@H]1C [Daptomycin, daptomycin]
MRSA
  Antimicrobial activity (MIC): 0.5 µg/mL
  MIC in 10% bovine serum: 1 µg/mL (≈ 0.617 µM)
MRSA MR6 strain
  Therapeutic effect (ED50): 0.73 mg/kg
S. aureus RN4220 [1]
  MIC, Control: 0.5 µg/mL (≈ 0.309 µM)
  MIC +rhApoA-I relative to control (fold): 1/1
  MIC, +rhApoA-I 25µg ml-1: 0.5 µg/mL (≈ 0.309 µM)
[2]; human plasma
  Protein binding (%, human plasma): 90–96[52] %

## CC(=O)NC[C@H]1CN(c2ccc(N3CCOCC3)c(F)c2)C(=O)O1 [Linezolid, linezolid]
MRSA; MRSA, read-out: Antimicrobial activity (MIC)
  MIC: 2 µg/mL (≈ 5.93 µM)
MRSA; MRSA, read-out: MIC in 10% bovine serum
  MIC: 2 µg/mL (≈ 5.93 µM)
MRSA MR6 strain
  Therapeutic effect (ED50): 3.8 mg/kg
[2]; human
  Protein binding (%, human plasma): 18[52] %

## CN[C@H](CC(C)C)C(=O)N[C@H]1C(=O)N[C@@H](CC(N)=O)C(=O)N[C@H]2C(=O)N[C@H]3C(=O)N[C@H](C(=O)N[C@H](C(=O)O)c4cc(O)cc(O)c4-c4cc3ccc4O)[C@H](O)c3ccc(c(Cl)c3)Oc3cc2cc(c3O[C@@H]2O[C@H](CO)[C@@H](O)[C@H](O)[C@H]2O[C@H]2C[C@](C)(N)[C@H](O)[C@H](C)O2)Oc2ccc(cc2Cl)[C@H]1O [Vancomycin, vancomycin]
MRSA; MRSA, 10% bovine serum in medium
  MIC in 10% bovine serum: 1 µg/mL (≈ 0.69 µM)
MRSA; MRSA, microdilution, no serum
  Antimicrobial activity (MIC): 1 µg/mL
MRSA MR6 strain
  Therapeutic effect (ED50): 4.2 mg/kg
S. aureus RN4220 [1]
  MIC, Control: 1 µg/mL (≈ 0.69 µM)
  MIC +rhApoA-I relative to control (fold): 1/1
  MIC, +rhApoA-I 25µg ml-1: 1 µg/mL (≈ 0.69 µM)
[2]; human plasma
  Protein binding (%, human plasma): 10–50[51] %

## ApoA-I: purified bovine and human apolipoprotein A-I
S. aureus RN4220 [3]
  Inhibition of S. aureus growth by the protein alone: did not inhibit S. aureus growth

## ApoA-II: purified bovine and human apolipoprotein A-II
S. aureus RN4220 [3]
  Inhibition of S. aureus growth by the protein alone: did not inhibit S. aureus growth

## hApoA-II: purified human ApoA-II (Calbiochem)
S. aureus
  Specific activity for lysocin E antimicrobial enhancing activity: 5900 unit mg-1 protein

## nisin (ITSISLCTPGCKTGALMGCNMKTATCHCSIHVSK)
S. aureus RN4220 [1]
  MIC, Control: 8 µg/mL
  MIC +rhApoA-I relative to control (fold): 1/4
  MIC, +rhApoA-I 25µg ml-1: 2 µg/mL
S. aureus RN4220 [1]; with lipid II 25 µg ml-1
  MIC, Control: > 32 µg/mL
  MIC, +rhApoA-I 25µg ml-1: > 32 µg/mL
S. aureus RN4220 [1]; wild-type RN4220, TSB medium, two independent experiments
  Antimicrobial activity (MIC), WT: 16
S. aureus ∆menA strain
  Antimicrobial activity (MIC), ∆menA: 16
S. aureus ∆menB strain
  Antimicrobial activity (MIC), ∆menB: 16
rhApoA-I; CL, replicate 1
  Nisin binding to rhApoA-I (pull-down): 0.284
rhApoA-I; CL, replicate 2
  Nisin binding to rhApoA-I (pull-down): 0.1757
rhApoA-I; CL, replicate 3
  Nisin binding to rhApoA-I (pull-down): 0.257
rhApoA-I; LTA, replicate 1
  Nisin binding to rhApoA-I (pull-down): 0.1611
rhApoA-I; LTA, replicate 2
  Nisin binding to rhApoA-I (pull-down): 0.2119
rhApoA-I; LTA, replicate 3
  Nisin binding to rhApoA-I (pull-down): 0.3298
rhApoA-I; Lipid II, replicate 1
  Nisin binding to rhApoA-I (pull-down): 1.947
rhApoA-I; Lipid II, replicate 2
  Nisin binding to rhApoA-I (pull-down): 4.556
rhApoA-I; Lipid II, replicate 3
  Nisin binding to rhApoA-I (pull-down): 3.824
rhApoA-I; PG, replicate 1
  Nisin binding to rhApoA-I (pull-down): 0.4181
rhApoA-I; PG, replicate 2
  Nisin binding to rhApoA-I (pull-down): 0.2568
rhApoA-I; PG, replicate 3
  Nisin binding to rhApoA-I (pull-down): 0.2266
rhApoA-I; Vehicle (no lipid added), replicate 1
  Nisin binding to rhApoA-I (pull-down): 0.2456
rhApoA-I; Vehicle (no lipid added), replicate 2
  Nisin binding to rhApoA-I (pull-down): 0.223
rhApoA-I; Vehicle (no lipid added), replicate 3
  Nisin binding to rhApoA-I (pull-down): 0.2718

## rhApoA-I: recombinant human ApoA-I
S. aureus
  Specific activity for lysocin E antimicrobial enhancing activity: 6500 unit mg-1 protein
